In PMC6973020, “Quinoline‐Conjugated Ruthenacarboranes: Toward Hybrid Drugs with a Dual Mode of Action” (Chemmedchem, 2019):

Experiments:
LN229 human glioblastoma [1] = assay: Crystal violet (CV) cell viability assay, LN229; format: cell-based; conditions: read-out: IC50 LN229
Source text: (§1) Thus, care must be taken when comparing their biological activities with those of our previous studies, even with the same cell line, because the covalent vs. non‐covalent combination of drugs might imply different mechanisms of action in the cell.44 Here, we studied the in vitro activity of ruthenacarborane 3, i. e. free acid, and its 8‐hydroxyquinolyl (4) and 4‐{(7‐chloroquinolin‐4‐yl)oxy}butanol‐1‐yl (5) esters, against a panel of cancer cell lines (B16 mouse melanoma, A375 human skin melanoma, MCF‐7 human breast adenocarcinoma, LN229 human glioblastoma, U251 human glioma). Human fibroblast cell line MRC‐5, murine microglial cell line BV‐2 as well as peritoneal exudate cells (Mph), were chosen as models for non‐malignant cells. […] On the other side, we wanted to assess the reproducibility of the viability data, under either controlled (with BSA) or uncontrolled (without BSA) conditions, in two sets of independent assays. […] Cells were exposed to 3–5 for 72 h, after which cell viability was determined via 3‐(4,5‐dimethylthiazol‐2‐yl)‐2,5‐diphenyltetrazolium bromide (MTT) and crystal violet (CV) assays, in parallel (Table 2). Cisplatin was also tested as reference.
(§2) Preparation of drug solutions. […] Stock solution of cisplatin was prepared in DMF (10 mM) immediately before use. A stock solution of BSA in PBS was prepared at 1.28 mM concentration, and stored at 4 °C in the dark. […] Alternatively, 3 or 4 (DMSO stock solution) were added to the BSA solution in PBS, always with a 10 : 1 molar ratio of BSA to ruthenacarborane. The BSA−ruthenacarborane solutions were incubated 0.5–1 h at room temperature, then diluted with cell culture medium to the desired final concentrations. Final concentrations of 3 and 4 were the same as for the BSA‐free formulation. Final DMSO was 0.02–0.5 vol %.
(§3) Colorimetric assays for cellular viability. […] For counting the number of attached (viable) cells, cells were fixed with 4 % (w/v) paraformaldehyde for 10 min at room temperature, and subsequently stained for 15 min with […] crystal violet (CV) solution. Cells were then washed with tap water, dried in air, and the CV dye was dissolved in 33 % (w/v) acetic acid solution. For the detection of mitochondrial respiration, cells were cultivated in MTT staining solution (0.5 mg mL^−1) for approximately 1 h. The dye was then discarded, and the formed formazan (purple) was dissolved in DMSO. The absorbance was measured with an automated microplate reader at λmax 540 nm, with the reference λmax 670 nm. Untreated cells or cells treated only with BSA (control) were also measured, as reference for BSA‐free and BSA‐containing drug formulations, respectively. For determination of the role of autophagy specific inhibitors, CQ or 3‐MA, were applied at a concentration of 20 μM and 0.5 mM, respectively, and the cells were stained with CV dye. Cell viability is expressed as percentage (%) relative to control (untreated cultures).58 Experiments were run in three independent replicates. […] Non‐linear regression analyses of the obtained results was done using GraphPad Prism software to calculate IC50 values.
(§4) mouse microglial cell line BV‐2 was a kind gift from Dr. Irena Lavrnja, Institute for Biological Research
(§5) “Siniša Stanković” (University of Belgrade).

U251 human glioma [2] = assay: Crystal violet (CV) cell viability assay, U251; format: cell-based; conditions: read-out: IC50 U251
Source text: as §1, §2, §3, §4, §5

A375 human skin melanoma [3] = assay: Crystal violet (CV) cell viability assay, A375; format: cell-based; conditions: 72 h
Source text: as §1, §2
(§6) Colorimetric assays for cellular viability. […] For counting the number of attached (viable) cells, cells were fixed with 4 % (w/v) paraformaldehyde for 10 min at room temperature, and subsequently stained for 15 min with […] crystal violet (CV) solution. Cells were then washed with tap water, dried in air, and the CV dye was dissolved in 33 % (w/v) acetic acid solution. For the detection of mitochondrial respiration, cells were cultivated in MTT staining solution (0.5 mg mL^−1) for approximately 1 h. The dye was then discarded, and the formed formazan (purple) was dissolved in DMSO. The absorbance was measured with an automated microplate reader at λmax 540 nm, with the reference λmax 670 nm. Untreated cells or cells treated only with BSA (control) were also measured, as reference for BSA‐free and BSA‐containing drug formulations, respectively. […] Cell viability is expressed as percentage (%) relative to control (untreated cultures).58 Experiments were run in three independent replicates. […]

A375 human skin melanoma [4] = assay: MTT cell viability assay, A375; format: cell-based; conditions: 72 h
Source text: as §1, §2, §6

B16 mouse melanoma [5] = assay: MTT cell viability assay, B16; format: cell-based; conditions: 72 h
Source text: as §1, §2, §6

[6] = test system: MCF‐7 human breast adenocarcinoma; assay: MTT cell viability assay, MCF‐7; format: cell-based; conditions: 72 h
Source text: as §1, §2, §6

[7] = test system: MCF‐7 human breast adenocarcinoma; assay: Crystal violet (CV) cell viability assay, MCF‐7; format: cell-based; conditions: 72 h
Source text: as §1, §2, §6

U251 human glioma [8] = assay: MTT cell viability assay, U251; format: cell-based; conditions: 72 h
Source text: as §1, §2, §6

LN229 human glioblastoma [9] = assay: MTT cell viability assay, LN229; format: cell-based; conditions: 72 h
Source text: as §1, §2, §6

B16 mouse melanoma [10] = assay: Crystal violet (CV) cell viability assay, B16; format: cell-based; conditions: 72 h
Source text: as §1, §2, §6

[11] = test system: Human fibroblast cell line MRC‐5; assay: Crystal violet (CV) cell viability assay, MRC‐5; format: cell-based; conditions: 72 h
Source text: as §1
(§7) Preparation of drug solutions. […] Stock solution of cisplatin was prepared in DMF (10 mM) immediately before use. A stock solution of BSA in PBS was prepared at 1.28 mM concentration, and stored at 4 °C in the dark. […] Alternatively, 3 or 4 (DMSO stock solution) were added to the BSA solution in PBS, always with a 10 : 1 molar ratio of BSA to ruthenacarborane. […]
(§8) Colorimetric assays for cellular viability. […] The absorbance was measured with an automated microplate reader at λmax 540 nm, with the reference λmax 670 nm. Untreated cells or cells treated only with BSA (control) were also measured, as reference for BSA‐free and BSA‐containing drug formulations, respectively. […] Cell viability is expressed as percentage (%) relative to control (untreated cultures).58 Experiments were run in three independent replicates. […]

[12] = test system: murine microglial cell line BV‐2; assay: MTT cell viability assay, BV‐2; format: cell-based, mouse; conditions: 72 h
Source text: as §1, §7, §8

[13] = test system: murine microglial cell line BV‐2; assay: Crystal violet (CV) cell viability assay, BV‐2; format: cell-based, mouse; conditions: 72 h
Source text: as §1, §7, §8

[14] = test system: U251 and LN229 cell lines; assay: Cell viability assays (MTT, CV), summary for glioma and glioblastoma lines; format: cell-based, human; conditions: concentration range tested up to 100 μM, 72 h
Source text: as §1, §7, §8

[15] = test system: Human fibroblast cell line MRC‐5; assay: MTT cell viability assay, MRC‐5; format: cell-based; conditions: 72 h
Source text: as §1, §7, §8

[16] = test system: primary non‐malignant mouse macrophages (Mph); assay: Crystal violet (CV) cell viability assay, peritoneal macrophages (Mph); format: cell-based; conditions: 72 h
Source text: as §1, §7, §8

Compound | IC50 (LN229 human glioblastoma [1]; Homo sapiens, LN-229, 72 h) [µM] | IC50 (U251 human glioma [2]; Homo sapiens, U-251, 72 h) [µM] | IC50 (LN229 human glioblastoma [1]; CV assay, 72 h) [µM] | IC50 (U251 human glioma [2]; CV assay, 72 h) [µM] | IC50 (A375 human skin melanoma [3]) [µM] | IC50 (A375 human skin melanoma [4]) [µM] | IC50 (B16 mouse melanoma [5]) [µM] | IC50 [6] [µM] | IC50 [7] [µM] | IC50 (U251 human glioma [8]) [µM] | IC50 (LN229 human glioblastoma [9]) [µM] | IC50 (B16 mouse melanoma [10]) [µM] | IC50 [11] [µM] | IC50 [12] [µM] | IC50 [13] [µM] | activity against LN229 and U251 (in words) [14] | IC50 [15] [µM] | IC50 [16] [µM]
CCN(CC)CCCC(C)Nc1ccnc2cc(Cl)ccc12 (stereo not shown) [CQ, chloroquine, reference compound] | 30 to 50 | 30 to 50 | – | – | – | – | – | – | – | – | – | – | – | – | – | – | – | –
N.N.[Cl][Pt][Cl] [Cisplatin, reference compound] | – | – | 4.1 ± 0.6 | 0.8 ± 0.3 | 3.7 ± 0.1 | 3.3 ± 0.4 | 6 ± 0.4 | 3 ± 0.5 | 3.5 ± 0.2 | 0.4 ± 0.1 | 4.1 ± 0.4 | 10.9 ± 1.2 | – | – | – | – | – | –
closo ‐[3‐(η^6‐p‐Cymene)‐1‐[(7‐chloroquinolin‐4‐yl)oxy]butyl acetate)‐3,1,2‐RuC2B9H10] [Compound 5] | – | – | 82.5 ± 7.6 | > 100 | > 100 | 43.4 ± 0.3 | 9.5 ± 1.8 | 15.5 ± 1.5 | 34.1 ± 0.5 | > 100 | 86.7 ± 3 | 33.7 ± 2.9 | > 100 | 12.3 ± 0.1 | > 100 | inactive | > 100 | > 100
